Results: patent US20120093917A1, “METNASE AND INTNASE INHIBITORS AND THEIR USE IN TREATING CANCER” (priority 2009, published 2012)

Columns and labels:
[1] = system: human Pancreatic cancer cell line BXPC3; test: Colony formation assay, pancreatic cancer cell line BXPC3; format: cell-based; conditions: for potentiation of gemcitabine (surviving colonies) / activity on their own against the pancreatic cancer cells (surviving colonies): BXPC3, FIG. 16; for potentiation of gemcitabine (surviving colonies): 2 μM inhibitor + 0.3 μg/ml gemcitabine, 18 hrs, normalized to gemcitabine; for activity on their own against the pancreatic cancer cells (surviving colonies): 2 μM inhibitor, 18 hrs treatment, colonies after 14 days, normalized to DMSO; for BxPC3 Pancreatic activity: summary table / FIG. 34
Description: (§1) The human Pancreatic cancer cell line BXPC3 was plated (4000 cells per plate with a ˜10% plating efficiency) in 10 cm dishes, using 10 ml of RPMI media (always with 10% FBS) per plate, and placed in a […] incubator (5% CO2) for 24 hrs. After 24 hrs, each plate was treated with one or a combination of the following agents: DMSO (0.2% in solution), 0.3 μg/ml of gemcitabine (dissolved in 1×PBS), and/or 2 μM of each Metnase/Intnase inhibitor (dissolved in DMSO). When the DMSO, gemcitabine, and/or inhibitors were added, the plates were swirled several times to assure mixing. After the agents were added to the RPMI, the plates were put back into the incubators for 18 hrs. Following 18 hrs treatment, the media was removed and the cells were washed twice with 1×PBS. Ten ml of fresh RPMI with 10% FBS was added and the cells were placed back into the incubator for 14 days. After the incubation period that will allow surviving cells to form colonies, the media was discarded and surviving colonies were stained with methylene blue. Colonies, a reflection of a single surviving cell that expanded, were counted to measure survival. All experiments were run in triplicate. Experiments were normalized to either DMSO (black asterices) or gemcitabine (red asterices).

[2] = system: cancer cells; test: Summary statements: cytotoxicity for cancer cells alone and with chemotherapy; format: cell-based; conditions: summary statement referring to figures
Description: as §1
(§2) The human colon cancer cell line SW48 was plated (1000 cells per plate with a ˜20% plating efficiency) in 10 cm dishes, using 10 ml of DMEM media (always with 10% FBS) per plate, and placed in a […] incubator (5% CO2) for 24 hrs. After 24 hr, each plate was treated with one or a combination of the following agents: DMSO (0.2% in solution), 3 μM 5-fluorouracil (5FU, dissolved in 1×PBS), and/or 2 μM of each Metnase/intnase inhibitor (dissolved in DMSO). When the DMSO, 5FU, and/or inhibitors were added, the plates were swirled several times to assure mixing. After agents were added to the DMEM, the plates were put back into the incubators for 18 hr. Following 18 hr treatment, the media was removed and the cells were washed twice with 1×PBS. Ten milliliters of fresh DMEM was added and the cells were placed back into the incubator for 7-14 days. After the incubation period that will allow surviving cells to grow and form colonies, media was discarded and surviving colonies were stained with methylene blue. Colonies, a reflection of a single surviving cell that expanded, were counted to measure survival. All experiments were run in triplicate. Experiments were normalized to either DMSO (black asterices) or 5FU (red asterices).
(§3) The human myeloid cell line KG-1 was grown in RPMI1640 with 10% FBS. The small cell lung cancer cell line CRL5898 was grown in HITES medium (Dulbecco's medium: Ham's F12, 50:50 mix, Insulin 0.005 mg/ml Transferrin 0.01 mg/ml Sodium selenite 30 nM Hydrocortisone 10 nM beta-estradiol 10 nM HEPES 10 mM L-glutamine 2 mM (in addition to that in the base medium)). Both cell lines were seeded at 10,000 cells/ml in the appropriate medium in 6 well plates. The Chem Div compounds were resuspended as 5 mM stock solutions in DMSO. The Chem Div compounds were added alone at 2 uM and 5 uM or in combination with VP-16 (also called etoposide) at 0.05 uM. DMSO was added to the control wells. Cells were plated and treated in triplicate and counted daily for 4 days.

[3] = system: CYP3A; conditions: cited from earlier work
[4] = in vivo; cited from earlier work
[5] = system: human myeloid cell line KG-1; test: Leukemia cell line KG-1 growth curve, alone or with VP-16; format: cell-based; conditions: for effect of compound alone on KG-1 growth, lower/low dose: lower (low) dose of compound (added at 2 uM and 5 uM); for effect of compound alone on KG-1 growth, lower/low dose / potentiation of low dose VP-16 on KG-1 growth, lower/low dose of compound / effect of compound alone on KG-1 growth, high dose / potentiation of low dose VP-16 on KG-1 growth, high dose of compound: counted daily for 4 days; for potentiation of low dose VP-16 on KG-1 growth, lower/low dose of compound: lower (low) dose of compound + VP-16 0.05 uM; for effect of compound alone on KG-1 growth, high dose: high (higher) dose of compound (added at 2 uM and 5 uM); for potentiation of low dose VP-16 on KG-1 growth, high dose of compound: high (higher) dose of compound + VP-16 0.05 uM; for KG-1 Leukemia potency / KG-1 Leukemia cooperativity with VP-16: summary table / FIG. 34
Description: as §3

[6] = system: human colon cancer cell line SW48; test: Colony formation assay, colon cancer cell line SW48; format: cell-based; conditions: FIG. 17; for activity on their own against the colon cancer cells (surviving colonies): 2 μM inhibitor, 18 hr treatment, colonies after 7-14 days, normalized to DMSO
Description: as §2

[7] = system: small cell lung cancer cell line CRL5898; test: Small cell lung cancer cell line CRL5898 growth, alone or with VP-16; format: cell-based; conditions: for CLR5898 Small Cell Lung Cancer cooperativity with VP-16 / CLR5898 Small Cell Lung Cancer potency: summary table / FIG. 34
Description: as §3

| SMILES | potentiation of gemcitabine (surviving colonies) [1] | activity on their own against the pancreatic cancer cells (surviving colonies) [1] | cytotoxicity for cancer cells, compound alone [2] | CYP3A induction [3] | Serum half-life [4] [h] | effect of compound alone on KG-1 growth, lower/low dose [5] | potentiation of low dose VP-16 on KG-1 growth, lower/low dose of compound [5] | cytotoxicity for cancer cells with chemotherapy agents (potentiation) [2] | activity on their own against the colon cancer cells (surviving colonies) [6] | BxPC3 Pancreatic activity [1] | effect of compound alone on KG-1 growth, high dose [5] | potentiation of low dose VP-16 on KG-1 growth, high dose of compound [5] | KG-1 Leukemia potency [5] | KG-1 Leukemia cooperativity with VP-16 [5] | CLR5898 Small Cell Lung Cancer cooperativity with VP-16 [7] | CLR5898 Small Cell Lung Cancer potency [7] | potentiation of 5FU (surviving colonies) ([6]; 2 μM inhibitor + 3 μM 5-fluorouracil, 18 hr, normalized to 5FU) | potentiation of low dose VP-16 on CRL5898 cell growth ([7]; FIG. 33) | effect of compound alone on CRL5898 cell growth ([7]; FIG. 33, compared with low dose VP-16) |
| --- | --- | --- | --- | --- | --- | --- | --- | --- | --- | --- | --- | --- | --- | --- | --- | --- | --- | --- | --- |
| COc1cc2c(cc1Cc1cccc(Cl)c1F)c(=O)c(C(=O)O)cn2[C@H](CO)C(C)C [Elvitegravir, 6-[(3-chloro-2-fluorophenyl)methyl]-1-[(2S)-1-hydroxy-3-methylbutan-2-yl]-7-methoxy-4-oxoquinoline-3-carboxylic acid, reference compound] | potentiate gemcitabine | activity on their own | cytotoxic for cancer cells alone | moderate CYP3A inducer | 3 | – | – | – | – | – | – | – | – | – | – | – | – | – | – |
| O=C(O)c1ccc(N2C(=O)Nc3ccccc3N2O)cc1O [D0045-0007] | potentiate gemcitabine | activity on their own | cytotxoic for cancer cells alone | – | – | decreased KG-1 leukemia cell growth compared to control | potentiated the anti-proliferative effect of low dose VP-16 | increased the cytotoxicity of chemotherapy when added | activity on their own | – | – | – | – | – | – | – | – | – | – |
| CCn1cc(C(C)=O)c(=O)c2cc(F)c(N3CCN(C(=O)c4ccc(Cl)cc4)CC3)cc21 [5076-4170] | – | – | cytotxoic for cancer cells alone | – | – | slowed the growth of the leukemia cell line KG-1 and caused cell death with prolonged treatment | some potentiation on the anti-proliferative effect of low dose VP-16 | increased the cytotoxicity of chemotherapy when added | – | inactive | slowed the growth of the leukemia cell line KG-1 and caused cell death with prolonged treatment | some potentiation on the anti-proliferative effect of low dose VP-16 | High potency, probably below 1 uM. | – | – | – | – | – | – |
| COc1ccc(Cn2c(C)c(CNC(C)c3ccccc3)c(C(=O)O)c2C)cc1 (centres unmarked) [G396-1171] | – | – | cytotxoic for cancer cells alone | – | – | decreased KG-1 leukemia cell growth, similar to low dose VP-16 alone | potentiated the anti-proliferative effect of low dose VP-16 | increased the cytotoxicity of chemotherapy when added | – | inactive | decreasedKG-1 leukemia cell growth, similar to low dose VP-16 alone | potentiated the anti-proliferative effect of low dose VP-16 | Potency in uM | Cooperativity with VP-16 | No | Potency in uM | – | – | – |
| CC(C)n1cc(C(=O)O)c(=O)c2ccccc21 [5483-0023] | potentiate gemcitabine | activity on their own | cytotxoic for cancer cells alone | – | – | decreased KG-1 leukemia cell growth, similar to low dose VP-16 | potentiated the anti-proliferative effect of low dose VP-16 | increased the cytotoxicity of chemotherapy when added | activity on their own | Active | decreased KG-1 leukemia cell growth especially with longer treatment | potentiated the anti-proliferative effect of low dose VP-16 | Potency in uM | Cooperativity with VP-16 | No or very | Potency in uM | potentiate 5FU | – | – |
| O=C(O)c1cc(=O)c2ccccc2o1 [R092-0025] | potentiate gemcitabine | activity on their own | cytotxoic for cancer cells alone | – | – | – | – | increased the cytotoxicity of chemotherapy when added | activity on their own | – | – | – | – | – | – | – | – | – | – |
| Cc1ccc(NCC(=O)Nc2cccc(C(=O)O)c2O)cc1 [8017-3379] | – | – | cytotxoic for cancer cells alone | – | – | inhibited KG-1 leukemia cell growth even more than low dose VP-16 alone | no potentiation on the effect of low dose VP-16 | – | – | inactive | inhibited KG-1 leukemia cell growth even more than low dose VP-16 alone | no potentiation on the effect of low dose VP-16 | Potency in uM | No or very weak | No or very | Potency in uM | – | some potentiation of the anti-proliferative effect of low dose VP-16 | inhibited cell growth of the small cell lung cancer cell line CRL5898, the same as low dose VP-16 |
| CCn1cc(C(=O)O)c(=O)c2cc(F)c(N3CCN(C(=O)c4ccc(OC(C)=O)cc4)CC3)cc21 [5082-2438] | – | – | cytotxoic for cancer cells alone | – | – | decreased KG-1 leukemia cell growth, similar to low dose VP-16 alone | potentiated the effect of low dose VP-16 and prolonged treatment resulted in cell death | increased the cytotoxicity of chemotherapy when added | – | weak | decreased KG-1 leukemia cell growth, similar to low dose VP-16 alone | potentiated the anti-proliferative effect of low dose VP-16 and prolonged treatment resulted in cell death | Potency in uM | Cooperativity with VP-16 | No or very | Potency in uM | – | – | – |
